# Assay results taken from patent publication US9663486B2, “Selectively substituted quinoline compounds” (EISAI R&D MANAGEMENT CO., LTD., priority 2013, dated 2017).
# “Also recorded” adds a separate entry of the source.
# System: IFN-regulated genes
# Assay: DBA/1 pristane lupus model, IFN-regulated gene expression in whole blood (qPCR, IFN score)
# Assay type: in vivo, mouse
# Details: Pristane-induced diseased animals, DBA/1 mice, once-a-day oral dosing
# Experimental: FIG. 1A through FIG. 1D show results of treatment with ER-888840 (5-((3R,5S)-3-amino-5-methylpiperidin-1-yl)quinoline-8-carbonitrile) in the DBA/1 pristane model. Figure Legend: Female DBA/1 mice at 10 weeks of age were given an intraperitoneal injection of 0.5 ml pristane or PBS. At 18 weeks of age animals were bled for pre-dosing baseline auto-antibody titers. Once-a-day oral dosing with Vehicle (Veh; 0.5% methyl-cellulose) or 11 mg/kg, 33 mg/kg, or 100 mg/kg of ER-888840 was begun at 18 weeks of age, 8 weeks after pristane injection and continued for 12 weeks of treatment. At the end of the experiment plasma samples were taken and anti-dsDNA and anti-histone (FIG. 1A) and anti-Sm/RNP and anti-RiboP (FIG. 1B) titers were determined by ELISA. (FIG. 1C) The expression of IFN-regulated genes in whole blood was measured by a qPCR panel after 8 weeks of treatment. […] (FIG. 1D) The interferon scores of individual mice were calculated (see Pharmacology Materials and Methods section for details regarding IFN score calculation) and groups compared using the Mann-Whitney t test.
# FIG. 2A through 2E show results of treatment with ER-888840 in the DBA/1 pristane model. […] At the end of the experiment plasma was taken and anti-dsDNA (FIG. 2A), anti-RiboP (FIG. 2B), anti-histone (FIG. 2C) and anti-Sm/RNP (FIG. 2D) titers were determined by ELISA. […]
smiles,measurement,value
"C[C@H]1C[C@@H](N)CN(c2ccc(C#N)c3ncccc23)C1 [ER-888840, 5-((3R,5S)-3-amino-5-methylpiperidin-1-yl)quinoline-8-carbonitrile]",effect on interferon-regulated gene expression (interferon score),dose-dependently significantly reduced interferon-regulated gene expression; also recorded: suppressed the upregulation of interferon-driven genes
